Results as given in the supplement of paper PMC10307832.

Assays:
Assay in all cases: relative viability (nuclei count vs DMSO), 5 days (fraction); higher = more cells survive
Veliparib + Pemetrexed = compound: C[C@]1(c2nc3c(C(N)=O)cccc3[nH]2)CCCN1 [Veliparib] + Nc1nc2[nH]cc(CCc3ccc(C(=O)N[C@@H](CCC(=O)O)C(=O)O)cc3)c2c(=O)[nH]1 [Pemetrexed] (partner 0.2 µM)
Procedure, shortened: (§1)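 The day after seeding in 1536-well plates, lung cancer cell lines were treated by pin tool with a single drug, or with a fixed anchor-drug dose together with five library-drug doses (not always all listed) in √10 steps. After 5 days, a combined fix-and-stain solution (final 0.05% Triton X-100, 1% formaldehyde, 1 ug/ml Hoechst) was added. Nuclei counted on 4× images gave relative viability as treated counts over vehicle counts, reported as the median of duplicate plates.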

[1] = compound: COC1=CC=C(C=C1)CN2C=CC3=C2C=C(C=C3)C(=O)NO + CC(=O)c1c(C)c2cnc(Nc3ccc(N4CCNCC4)cn3)nc2n(C2CCCC2)c1=O [Palbociclib] (partner 0.5 µM)
Procedure, shortened: as §1

[2] = compound: COC1=CC=C(C=C1)CN2C=CC3=C2C=C(C=C3)C(=O)NO + Cc1nc(NC(=O)N2CCC[C@H]2C(N)=O)sc1-c1ccnc(C(C)(C)C(F)(F)F)c1 [Alpelisib] (partner 2 µM)
Procedure, shortened: as §1

Veliparib + Pictilisib = compound: C[C@]1(c2nc3c(C(N)=O)cccc3[nH]2)CCCN1 [Veliparib] + CS(=O)(=O)N1CCN(Cc2cc3nc(-c4cccc5[nH]ncc45)nc(N4CCOCC4)c3s2)CC1 [Pictilisib] (partner 1 µM)
Procedure, shortened: as §1

Cell Line | relative viability (Veliparib + Pemetrexed; first compound 0.02 µM) | relative viability (Veliparib + Pemetrexed; first compound 0.06325 µM) | relative viability (Veliparib + Pemetrexed; first compound 0.2 µM) | relative viability (Veliparib + Pemetrexed; first compound 0.6325 µM) | relative viability (Veliparib + Pemetrexed; first compound 2 µM) | relative viability ([1]; first compound 0.08 µM) | relative viability ([1]; first compound 0.253 µM) | relative viability ([1]; first compound 0.8 µM) | relative viability ([1]; first compound 2.53 µM) | relative viability ([1]; first compound 8 µM) | relative viability ([2]; first compound 0.08 µM) | relative viability ([2]; first compound 0.253 µM) | relative viability ([2]; first compound 0.8 µM) | relative viability ([2]; first compound 2.53 µM) | relative viability ([2]; first compound 8 µM) | relative viability (Veliparib + Pictilisib; first compound 0.02 µM) | relative viability (Veliparib + Pictilisib; first compound 0.06325 µM) | relative viability (Veliparib + Pictilisib; first compound 0.2 µM) | relative viability (Veliparib + Pictilisib; first compound 0.6325 µM) | relative viability (Veliparib + Pictilisib; first compound 2 µM)
NCI-H2085 | 0.58 | 0.952 | 0.911 | 0.875 | 0.802 | 0.492 | 0.452 | 0.495 | 0.464 | 0.538 | 0.968 | 0.981 | 1.1 | 0.969 | 1.02 | 0.468 | 0.463 | 0.39 | 0.415 | 0.396
LXF-289 | 0.897 | 1.02 | 0.913 | 0.856 | 0.997 | – | 0.588 | 0.609 | 0.607 | 0.581 | 0.394 | 1.03 | 1.12 | 1.05 | 1.01 | 0.78 | 0.778 | 0.768 | 0.746 | 0.755
EPLC-272H | – | 0.273 | 0.359 | 0.283 | 0.418 | – | 0.325 | 0.314 | 0.311 | 0.319 | 0.875 | 0.976 | 0.985 | 0.864 | 0.875 | – | 0.227 | 0.283 | 0.278 | 0.0962
NCI-H647 | 0.167 | 0.188 | 0.192 | 0.175 | 0.216 | 0.441 | 0.364 | 0.379 | 0.494 | 0.438 | 0.981 | 1.23 | 1.16 | 1.21 | 0.954 | 0.347 | 0.368 | 0.436 | 0.447 | 0.265
NCI-H2347 | 0.434 | 0.456 | 0.425 | 0.471 | 0.445 | 0.422 | 0.445 | 0.472 | 0.441 | 0.428 | 0.763 | 1.14 | 1.03 | 1.18 | 1.01 | 0.666 | 0.612 | 0.668 | 0.707 | 0.724
NCI-H1792 | 0.724 | 0.503 | 0.653 | 0.786 | 0.66 | 0.616 | 0.726 | 0.626 | 0.634 | 0.637 | 0.663 | 0.765 | 0.744 | 0.741 | 0.617 | 0.322 | 0.212 | 0.301 | 0.263 | 0.332
A-427 | 1 | 0.966 | 0.946 | 1.03 | 1.04 | 0.291 | – | 0.538 | 0.494 | 0.501 | – | 1.15 | 1.13 | 1.15 | 1.06 | 0.676 | 0.734 | 0.675 | 0.632 | 0.625
NCI-H2009 | 1.09 | 0.952 | 0.957 | 0.978 | 1.07 | 0.211 | 0.215 | 0.243 | 0.226 | 0.162 | 1.15 | 1.17 | 1.05 | 1.24 | 1.09 | 0.734 | 0.777 | 0.704 | 0.786 | 0.813
NCI-H1993 | – | 0.708 | 0.616 | 0.632 | 0.627 | 0.586 | 1.12 | 0.749 | 0.714 | 0.593 | 0.613 | 0.671 | 0.669 | 0.745 | 0.795 | 0.772 | 0.826 | 0.822 | 0.807 | 0.805
NCI-H2087 | 0.715 | 0.601 | 0.639 | 0.622 | 0.635 | 0.261 | 0.226 | 0.259 | 0.28 | 0.164 | 1.08 | 1.08 | 1.21 | 1.13 | 0.864 | 0.609 | 0.783 | 0.726 | 0.65 | 0.871
LCLC-97TM1 | 0.19 | 0.173 | 0.177 | 0.141 | 0.189 | – | 0.226 | 0.23 | 0.223 | 0.229 | – | 0.242 | 0.242 | 0.255 | 0.233 | 0.155 | 0.224 | 0.215 | – | 0.235
HCC-827 | 0.25 | 0.282 | 0.256 | 0.215 | 0.273 | 0.448 | 0.481 | 0.442 | 0.504 | 0.442 | 0.975 | 0.947 | 1.01 | 0.995 | 0.969 | 0.936 | 0.957 | 1.01 | 0.984 | 1.06
COR-L 105 | 1.27 | 1.09 | 1.27 | 1.19 | 1.01 | 0.33 | 0.435 | 0.449 | 0.416 | 0.397 | – | 0.93 | 1.04 | 0.942 | 0.929 | 0.364 | 0.388 | 0.351 | 0.391 | 0.56
NCI-H1915 | 0.532 | 0.463 | 0.537 | 0.491 | 0.487 | 0.506 | 0.545 | 0.518 | 0.505 | 0.559 | 1.02 | 1.07 | 1.06 | 1.08 | 1.02 | 0.989 | 0.87 | 0.727 | 0.808 | 0.86
NCI-H650 | 0.992 | 0.895 | 0.868 | 0.822 | 0.961 | 0.328 | 0.381 | 0.353 | 0.319 | 0.32 | 1.01 | 1.16 | 1.05 | 1.03 | 0.892 | 0.968 | 0.855 | 0.926 | 0.743 | 0.809
HCC-44 | 0.606 | 0.656 | 0.655 | 0.59 | 0.63 | 0.936 | 0.926 | 1.01 | 0.978 | 0.969 | 0.732 | 0.901 | 0.786 | 0.823 | 0.778 | 0.63 | 0.566 | 0.577 | 0.544 | 0.644
NCI-H2228 | 0.336 | 0.375 | 0.398 | 0.331 | 0.313 | 0.544 | 0.825 | 0.904 | 0.685 | 0.573 | 0.764 | 0.659 | 0.773 | 0.893 | 0.741 | 0.464 | 0.538 | 0.378 | 0.463 | 0.425
PC-14 | – | 0.13 | 0.168 | 0.143 | 0.134 | 0.533 | 0.599 | 0.567 | 0.509 | 0.535 | 0.883 | 0.856 | 0.96 | 1.02 | 0.985 | 0.624 | 0.513 | 0.616 | 0.673 | 0.662
RERF-LC-KJ | 0.43 | 0.454 | 0.505 | 0.462 | 0.464 | 1.05 | 1.1 | 1.07 | 1.09 | 1.05 | 0.765 | 0.796 | 0.83 | 0.95 | 0.83 | 0.59 | 0.529 | 0.592 | 0.563 | 0.454
LK-2 | 0.324 | 0.307 | 0.311 | 0.203 | 0.299 | – | 0.821 | 0.832 | 0.582 | 0.699 | – | 1.11 | 0.896 | 1.13 | 0.907 | – | 0.486 | 0.618 | 0.607 | 0.625
NCI-H1793 | 0.755 | 0.763 | 0.935 | 1.07 | 0.875 | – | 0.344 | 0.324 | 0.32 | 0.248 | 0.626 | 0.874 | 0.786 | 0.546 | 0.728 | 0.375 | 0.306 | 0.343 | 0.261 | 0.356
NCI-H1944 | 0.596 | 0.695 | 0.547 | 0.607 | 0.615 | – | 0.36 | 0.315 | 0.338 | 0.308 | – | 0.897 | 0.731 | 0.774 | 0.795 | 0.344 | 0.311 | 0.338 | 0.323 | 0.351
NCI-H1734 | – | 0.396 | 0.398 | 0.389 | 0.392 | – | 0.367 | 0.387 | 0.341 | 0.34 | – | 0.676 | 0.717 | 0.622 | 0.689 | 0.461 | 0.436 | 0.492 | 0.437 | 0.435
H3255 | 0.541 | 0.561 | 0.548 | 0.53 | 0.629 | 0.301 | 0.304 | 0.316 | 0.311 | 0.32 | 0.629 | 0.722 | 0.679 | 0.717 | 0.621 | 0.476 | 0.514 | 0.48 | 0.458 | 0.499
